Consider 8 molecules from PMC9241057, “Ru(II)arene(N^N bpy/phen)-based RAPTA complexes for in vitro anti-tumour activity in human glioblastoma cancer cell lines and in vivo toxicity studies in a zebrafish model” (RSC Advances, 2022).

What is called IC50 is the midpoint of a concentration-inhibition curve. Higher therefore signals a need for much substance. For orientation: solubility means the concentration that dissolves in the medium under given conditions. A high value points to a readily soluble substance.

Data set [1] concerns U87MG. Nature of the data set: MTT cytotoxicity assay, U87MG. Type of data set: cell-based, human. The following applies: 72 h incubation. Here is the method:
(§1) The cytotoxic activity of prepared RAPTA complexes (4a–4h) was evaluated by following the standard procedure of the MTT experiment against a series of glioblastoma cells (LN 229, T98, U87MG) in triplicate. In order to accomplish this study, cells were maintained for 72 h with complexes of various concentrations ranging from 2–160 μM, taking cisplatin as a typical positive control.[22]
(§2) RAPTA complexes were dissolved in 1% DMSO, and 0.9% NaCl aqueous solution was used to dissolve cisplatin. A cell suspension was prepared and the number of cells taken was 2.5 × 10^4 mL^−1. The cells were seeded in 96-well plates (200 μL per well) and allowed 80% confluence prior to treatment. The cells were formerly treated with various concentrations (2.5–160 μM) of complex 4a–h while the control group was treated with PBS […]. After the 72 hours of incubation, 0.5% MTT solution was added to each well (20 μL) and further incubated for 4 hours at […]. The formazan crystals that were formed were dissolved in 150 μL DMSO and then the OD was measured by a microplate reader at 540 nm. The % growth inhibition of the control and treated cells were calculated and represented as the growth inhibition percentage as explained below.% growth inhibition = 100 − [(AD × 100)/AB]where AD is the absorbance measured in wells containing the treated and control samples and AB is the measured absorbance for the wells with media and a vehicle that served as the blank. IC50 was calculated using Graphpad Prism (version 6.0) where % cell viability was plotted against drug concentration.

A short description of data set [2]: Conductivity measurement. Type of data set: physicochemical. The following applies: 3 x 10^-5 M; for Conductivity (ΛM) 10% aq DMSO: in 10% aq DMSO; for Conductivity (ΛM) DMSO: in DMSO. An excerpt:
concentrations gradually.
Origin Lab, version 8.5 was
equation (v) given below: […]
Conductivity measurement 7
complexes with DMSO and aqueous DMSO.
followed the previously described procedure. An orbital shaker was used to shake a known
Different ratios (0.5:1, 1:1,
saturated n-octanol to get the partition coefficient. The absorbance of aliquots of the aqueous

In data set [3] the test system is LN229. The data set can be described thus: MTT cytotoxicity assay, LN229. The data set is classed as cell-based, human. The following applies: 72 h incubation. How it is done:
as §1, §2

In data set [4] the test system is T98. The data set can be described thus: MTT cytotoxicity assay, T98. The conditions noted are these: 72 h incubation. Type of data set: cell-based, human. Here is the method:
as §1, §2

A short description of data set [5]: n-Octanol/water partition coefficient, shake-flask method.
Experimental: n-Octanol–water partition coefficient (log P o/w)8
Using the previously reported shake flask approach, the log Po/w of the RAPTA complexes
amount of each complexes in water (pre-saturated with n-octanol). The solution was
centrifuged at 3000 rpm for 10 minutes to allow phase separation. Different ratios (0.5:1, 1:1,
and 2:1) of saturated solutions were shaken for 20 minutes on an orbital shaker with pre-
and octanol layers were measured with a UV-Vis spectrophotometer after adequate dilution.
The concentrations of the complexes in each layer were estimated using the corresponding
molar extinction coefficients, and the partition coefficient (log Po/w) values were computed
Data set [6] is described as follows: Solubility. The following applies: DMSO-10% DMEM medium (1:99 v/v, comparable to cell media).
Data set [7] relates to EtBr-bound DNA (Ct-DNA). More on the design: method as in PMID 34612310. The conditions noted are these: from literature ref 20; cited from earlier work.
Data set [8] deals with Ct-DNA. The conditions noted are these: comparison value, no reference given; cited from earlier work.

In the case of `C1N2CN3CN1CP(C2)C3.Cc1ccc(C(C)C)cc1.F[P-](F)(F)(F)(F)F.F[P-](F)(F)(F)(F)F.Oc1ccnc2c1ccc1c(O)ccnc12.[Ru+2]` [4a, [(η^6-p-Cymene)Ru^II(κ^2-N,N-4,7dihydroxyphenanthroline)(PTA)]·2PF6], the 50% inhibitory concentration (IC50) in data set [1] was determined as 1690 ± 40 nM; in data set [3] it was 1800 ± 40 nM; in data set [4], 1950 ± 40 nM. For the same molecule, the “Conductivity (ΛM) 10% aq DMSO” value in data set [2] is listed as 74 S cm2 mol-1. In data set [2], the “Conductivity (ΛM) DMSO” value is given as 72 S cm2 mol-1.
In the same order, the values of `C1N2CN3CN1CP(C2)C3.Cc1ccc(C(C)C)cc1.F[P-](F)(F)(F)(F)F.F[P-](F)(F)(F)(F)F.[Ru+2].c1cnc2c(c1)ccc1cccnc12` [4b, [(η^6-p-Cymene)Ru^II(κ^2-N,N-phenanthroline)(PTA)]·2PF6] are 1910 ± 80 nM, 2190 ± 160 nM, 1910 ± 80 nM, 78 S cm2 mol-1 and 74 S cm2 mol-1.
With `C1N2CN3CN1CP(C2)C3.Cc1ccc(C(C)C)cc1.F[P-](F)(F)(F)(F)F.F[P-](F)(F)(F)(F)F.[Ru+2].c1ccc(-c2ccccn2)nc1` [4e, [(η^6-p-Cymene)Ru^II(κ^2-N,N-bipyridine)(PTA)]·2PF6], the IC50 was 1750 ± 30 nM in data set [1], 1890 ± 60 nM in data set [3] and 1990 ± 40 nM in data set [4]. Besides, the “log P (partition coefficient in n-octanol/water)” value in data set [5] is given as 1.4±0.08.
Regarding `C1N2CN3CN1CP(C2)C3.Cc1ccc(C(C)C)cc1.F[P-](F)(F)(F)(F)F.F[P-](F)(F)(F)(F)F.O=C(O)c1ccnc(-c2cc(C(=O)O)ccn2)c1.[Ru+2]` [4f, [(η^6-p-Cymene)Ru^II(κ^2-N,N-4,4′ dicarboxylic acid bipyridine)(PTA)]·2PF6], the IC50 came out at 1570 ± 20 nM in data set [1], 1790 ± 20 nM in data set [3] and 2120 ± 30 nM in data set [4]. For the same molecule, in data set [2], the “Conductivity (ΛM) 10% aq DMSO” value worked out at 77 S cm2 mol-1. In data set [2], the “Conductivity (ΛM) DMSO” value was 75 S cm2 mol-1. In addition, in data set [6], the solubility was 17 mM. Also, in data set [5], the “log P (partition coefficient in n-octanol/water)” value amounted to 0.33±0.03.
Consider `C1N2CN3CN1CP(C2)C3.CCCCCCCCCc1ccnc(-c2cc(CCCCCCCCC)ccn2)c1.Cc1ccc(C(C)C)cc1.F[P-](F)(F)(F)(F)F.F[P-](F)(F)(F)(F)F.[Ru+2]` [4h, [(η^6-p-Cymene)Ru^II(κ^2-N,N-4,4′ dinonylbipyridine)(PTA)]·2PF6], for which the values for the concentration for half-maximal inhibition (IC50) in data set [1], in data set [3] and in data set [4] were 1460 ± 30 nM, 1640 ± 30 nM and 1470 ± 30 nM, respectively. Also, the “Conductivity (ΛM) 10% aq DMSO” value in data set [2] came to 77 S cm2 mol-1. Besides, the “Conductivity (ΛM) DMSO” value in data set [2] is given as 71 S cm2 mol-1.
In the case of `CC[n+]1c(-c2ccccc2)c2cc(N)ccc2c2ccc(N)cc21` [EtBr, ethidium bromide], the “KEtBr, EtBr binding constant” value in data set [7] is 1e+07 M⁻¹. In addition, the “KEtBr, DNA binding constant of the typical intercalator” value in data set [8] is 700000 M⁻¹.
As to “[(η^6-p-Cymene)Ru^II(κ^2-N,N-4,4′ dimethylbipyridine)(PTA)]·2PF6 [4g]”, the IC50 in data set [1] was 1700 ± 30 nM; in data set [3], 1690 ± 20 nM; in data set [4], 1700 ± 30 nM. Further, the “Conductivity (ΛM) 10% aq DMSO” value in data set [2] is 74 S cm2 mol-1. In data set [2], the “Conductivity (ΛM) DMSO” value is recorded as 72 S cm2 mol-1.
As to “cis-[Pt(NH3)2Cl2] [Cisplatin, reference compound]”, the results for the IC50 in data set [1], in data set [3] and in data set [4] were 1370 ± 40 nM, 1400 ± 50 nM and 1360 ± 50 nM, respectively.
